In patent US10434199B2, “Picolinate cross-bridged cyclams, chelates with metallic cations and use thereof” (UNIVERSITÉ DE BRETAGNE OCCIDENTALE, priority 2013, dated 2019):
Like-named read-outs stand apart in the source and are kept apart here.

What was measured:
[1] = Potentiometric titrations: stability constants and pM of Cu^2+ complexes; format: physicochemical; conditions: for b) thermodynamic stability: pCu: overview table, calculated pM
Description: Equipment and work conditions. The potentiometric setup has been described in Roger, M. et al. Inorg. […] Ligand solutions were prepared at about 2.0×10^−3 M, and the Cu^2+ and Zn^2+ solutions at ca. 0.05 M from analytical grade nitrate salts and standardized by complexometric titrations with H4edta (ethylenediaminetetraacetic acid). Sample solutions for titration contained approximately 0.04 mmol of ligand in a volume of 30 mL where the ionic strength was kept at 0.10 M using KNO3 as background electrolyte. Metal cations were added at 0.9 equiv. of the ligand amount in complexation titrations. Batch titrations were prepared in a similar way but with each titration point corresponding to 1/10 of the amount of a conventional titration sample.
(§1) Measurements. All measurements were carried out at 25.0±0.1° C. under inert atmosphere. The electromotive force of the sample solutions was measured after calibration of the electrodes by titration of a standard HNO3 solution at 2.0×10^−3 M in the work conditions. The [H^+] of the solutions was determined by measurement of the electromotive force of the cell, E=E^o′+Q log [H^+]+Ej. The term pH is defined as −log [H^+]. E^o′ and Q were determined from the acid region of the calibration curves. Deviations from the Nernst law at very low pH (pH<2.5) were corrected with the VLpH software (Calibration software from the maker of Hyperquad available for free at http://www.hyperquad.co.uk/), which performs a [H^+] correction based on a very low pH calibration procedure.
(§2) Calculations. The potentiometric data were refined with the Hyperquad software, and speciation diagrams were plotted using the HySS software. The overall equilibrium constants βi^H and βMmHhL1 are defined by βMmHhL1=[MmHhLl]/[M]^m[H]^h[L]^l (βi^H=[HhLl]/[H]^h[L]^l and βML-1L=βML(OH)×Kw). Differences in log units between the values of protonated (or hydrolysed) and non-protonated constants provide the stepwise (log K) reaction constants (being KMmHhL1=[MmHhLl]/[MmHh-1Ll][H]). The errors quoted are the standard deviations calculated by the fitting program from all the experimental data for each system.
(§3) The stability constants of the complexes formed by Hcb-te1pa with Cu^2+ and Zn^2+ were determined by potentiometric titrations in aqueous solution at 25.0° C. in 0.10 M KNO3 ionic strength (Table 2).
During titrations, each experimental point included a supplementary equilibration time in order to yield fully stabilized measurements. […] For this reason, batch titrations were prepared in the range of pH=4-6 and were left to equilibrate until full stabilization, while conventional titrations were used for the remaining pH regions.
For a correct comparison of the thermodynamic stability of the complexes of Hcb-te1pa with the corresponding values of other ligands from the literature, the pM values that take into account the variable basicity properties of different ligands were also calculated (Table 3). […] The thermodynamic stability is not the only important criterion to determine the efficiency of metal complexation because, depending on the application, other factors such as kinetic inertness or in vivo stability can be more important.

[2] = cited from earlier work; for b) thermodynamic stability: log K[CuL]: overview table, ligands of the prior art (* estimation by Anderson and Ferdani 2009)
[3] = 25.0° C., 0.10M KNO3; from Lima et al. 2012; cited from earlier work
[4] = cited from earlier work; for half-life (t1/2), acid-assisted dissociation of copper(II) complex: literature value; for d) kinetic inertness: half-life (t1/2): copper chelates of prior-art ligands
[5] = overview table; copper chelates of prior-art ligands; cited from earlier work
[6] = overview table, cited from earlier work; for a) metallation kinetics: time required for complete (>99%) Cu complexation (in words): ligands of the prior art
[7] = Potentiometric titrations: stability constants and pM of Zn^2+ complexes; format: physicochemical; conditions: for c) inertness vs Zn: pZn: overview table, calculated pM
Description: Equipment and work conditions. The potentiometric setup has been described in Roger, M. et al. Inorg. Chem. 2013, 52, 5246-5259. The titrant was a KOH solution prepared at ca. 0.1 M from a commercial ampoule of analytical grade, and its accurate concentration was obtained by application of the Gran's method upon titration of a standard HNO3 solution (Rossotti, F. J. and Rossotti, H. J. J. Chem. Educ. 1965, 42, 375-378). Ligand solutions were prepared at about 2.0×10^−3 M, and the Cu^2+ and Zn^2+ solutions at ca. 0.05 M from analytical grade nitrate salts and standardized by complexometric titrations with H4edta (ethylenediaminetetraacetic acid). Sample solutions for titration contained approximately 0.04 mmol of ligand in a volume of 30 mL where the ionic strength was kept at 0.10 M using KNO3 as background electrolyte. Metal cations were added at 0.9 equiv. of the ligand amount in complexation titrations. Batch titrations were prepared in a similar way but with each titration point corresponding to 1/10 of the amount of a conventional titration sample. Batch titration points were incubated in tightly closed vials at 25° C. until potential measurements attained complete stability, which happened within a week.
as §1, with “procedure. The liquid-junction potential, Ej, was otherwise found to be negligible for pH >2.5 under the experimental conditions used. […] Each titration consisted of 80-100 equilibrium points in the range of pH 2.5-11.5 (or 1.5-11.5 for Cu^2+ complexations), and at least two replicate titrations were performed for each particular system.” for “procedure.”
as §2, §3
The equilibrium of formation of the copper(II) and especially the zinc(II) complexes is slow in the acidic pH range. In the case of Cu^2+, the complexation is almost complete from low pH but relatively slow up to pH=4. To overcome this double problem, conventional titrations were performed at pH values below 2 in order to observe a significant percentage of free metal ion (at least 18%) and thus allow for determination of the corresponding stability constant, while giving the solution enough time to reach equilibrium prior to the start of the titration. During titrations, each experimental point included a supplementary equilibration time in order to yield fully stabilized measurements. […]

[8] = cited from earlier work; for c) inertness vs Zn: log K[ZnL]: overview table, ligands of the prior art (** Delgado 1982, *** Chaves 1992)
[9] = pH = 7.4, 100% excess of ligand, [M^2+]tot = 1 × 10^−5 M
[10] = 25.0° C., I = 0.10M KNO3, from Lima et al. 2012

Compound: O=C(O)c1cccc(CN2CCCNCCNCCCNCC2)n1 [Hte1pa]
- b) thermodynamic stability: pCu [1]: 18.64
- Calculated pM, Cu^2+ [1, 9]: 18.64
- log KMLHh, CuL + H^+ ⇌ CuHL [2, 10]: 2.17 log units
- log KMLHh, CuLOH + H^+ ⇌ CuL [2, 10]: 11.15 log units
- log KMLHh, Cu^2+ + L ⇌ CuL [2, 10]: 25.5 log units
- log βMLHh, Cu^2+ + H^+ + L ⇌ CuHL [2, 10]: 27.67 log units
- log βMLHh, Cu^2+ + L ⇌ CuL [2, 10]: 25.5 log units
- log βMLHh, Cu^2+ + L ⇌ CuLOH + H^+ [2, 10]: 14.35 log units
- b) thermodynamic stability: log K[CuL] [2]: 25.50
- log βi^H, L + 2 H^+ ⇌ H2L [3]: 21.66 log units
- log βi^H, L + 3 H^+ ⇌ H3L [3]: 24.37 log units
- log βi^H, L + 4 H^+ ⇌ H4L [3]: 26.07 log units
- log βi^H, L + H^+ ⇌ HL [3]: 11.55 log units
- half-life (t1/2), acid-assisted dissociation of copper(II) complex ([4]; 1M HCl, 25° C.): 0.533 h
- half-life (t1/2), acid-assisted dissociation of copper(II) complex ([4]; 5M HClO4, 25° C.): 2.4 h
- d) kinetic inertness: half-life (t1/2) ([4]; HClO4, 5M, 25° C.): 144 min
- e) stability upon reduction, Cu(II) -> Cu (I): reduction potential [5]: −1.05 V
- e) stability upon reduction, Cu(II) -> Cu (I): reversibility [5]: quasi-reversible
- a) metallation kinetics: time required for complete (>99%) Cu complexation ([6]; ligand of the prior art): 3 min
- c) inertness vs Zn: pZn [7]: 12.00
- Calculated pM, Zn^2+ [7, 9]: 12.00
- log KMLHh, ZnL + H^+ ⇌ ZnHL [8, 10]: 2.52 log units
- log KMLHh, ZnLOH + H^+ ⇌ ZnL [8, 10]: 11.02 log units
- log KMLHh, Zn^2+ + L ⇌ ZnL [8, 10]: 18.86 log units
- log βMLHh, Zn^2+ + H^+ + L ⇌ ZnHL [8, 10]: 21.38 log units
- log βMLHh, Zn^2+ + L ⇌ ZnL [8, 10]: 18.86 log units
- log βMLHh, Zn^2+ + L ⇌ ZnLOH + H^+ [8, 10]: 7.84 log units
- c) inertness vs Zn: log K[ZnL] [8]: 18.86

Compound: O=C(O)CN1CCN2CCN(CC1)CCN(CC(=O)O)CC2 [cb-do2a]
- half-life (t1/2), acid-assisted dissociation of copper(II) complex ([4]; 5M HCl, 30° C.): <0.033 h
- d) kinetic inertness: half-life (t1/2) ([4]; HCl, 5M, 30° C.): <2 min
- d) kinetic inertness: half-life (t1/2) ([4]; HCl, 5M, 90° C.): <3 min
- e) stability upon reduction, Cu(II) -> Cu (I): reduction potential [5]: −0.72 V
- e) stability upon reduction, Cu(II) -> Cu (I): reversibility [5]: irreversible
- a) metallation kinetics: time required for complete (>99%) Cu complexation (in words) [6]: too slow

Compound: O=C(O)CN1CCCN2CCN(CCCN(CC(=O)O)CC2)CC1 [cb-te2a]
- b) thermodynamic stability: log K[CuL] [2]: 27.10*
- half-life (t1/2), acid-assisted dissociation of copper(II) complex ([4]; 5M HCl, 90° C.): 154 h
- d) kinetic inertness: half-life (t1/2) ([4]; HCl, 5M, 90° C.): 9240 min
- e) stability upon reduction, Cu(II) -> Cu (I): reduction potential [5]: −0.88 V
- e) stability upon reduction, Cu(II) -> Cu (I): reversibility [5]: quasi-reversible
- a) metallation kinetics: time required for complete (>99%) Cu complexation (in words) [6]: too slow

Compound: O=C(O)CN1CCN(CC(=O)O)CCN(CC(=O)O)CCN(CC(=O)O)CC1 [dota, 1,4,7,10-tetraazacyclododecane-1,4,7,10-tetraacetic acid]
- b) thermodynamic stability: pCu [1]: 15.19
- b) thermodynamic stability: log K[CuL] [2]: 22.21
- d) kinetic inertness: half-life (t1/2) ([4]; HCl, 5M, 90° C.): <1 min
- d) kinetic inertness: half-life (t1/2) ([4]; HClO4, 5M, 25° C.): about 5 min
- e) stability upon reduction, Cu(II) -> Cu (I): reduction potential [5]: −0.74 V
- e) stability upon reduction, Cu(II) -> Cu (I): reversibility [5]: irreversible
- a) metallation kinetics: time required for complete (>99%) Cu complexation (in words) [6]: fast
- c) inertness vs Zn: pZn [7]: 15.01
- c) inertness vs Zn: log K[ZnL] [8]: 21.01***

Compound: O=C(O)CN1CCCN(CC(=O)O)CCN(CC(=O)O)CCCN(CC(=O)O)CC1 [teta]
- b) thermodynamic stability: pCu [1]: 15.19
- b) thermodynamic stability: log K[CuL] [2]: 21.60
- d) kinetic inertness: half-life (t1/2) ([4]; HCl, 5M, 30° C.): 5040 min
- d) kinetic inertness: half-life (t1/2) ([4]; HCl, 5M, 90° C.): 4.5 min
- d) kinetic inertness: half-life (t1/2) ([4]; HClO4, 5M, 25° C.): about 8 min
- e) stability upon reduction, Cu(II) -> Cu (I): reduction potential [5]: −0.98 V
- e) stability upon reduction, Cu(II) -> Cu (I): reversibility [5]: irreversible
- a) metallation kinetics: time required for complete (>99%) Cu complexation (in words) [6]: fast
- c) inertness vs Zn: pZn [7]: 10.08
- c) inertness vs Zn: log K[ZnL] [8]: 15.81**
